{
  "source": "ChEMBL document CHEMBL1201862",
  "about": "“PubChem BioAssay data set” (2004)",
  "key": {"[1]": {"target": "Protein disulfide-isomerase A6 (Homo sapiens, UniProt Q15084)", "sequence (Q15084 whole entry)": "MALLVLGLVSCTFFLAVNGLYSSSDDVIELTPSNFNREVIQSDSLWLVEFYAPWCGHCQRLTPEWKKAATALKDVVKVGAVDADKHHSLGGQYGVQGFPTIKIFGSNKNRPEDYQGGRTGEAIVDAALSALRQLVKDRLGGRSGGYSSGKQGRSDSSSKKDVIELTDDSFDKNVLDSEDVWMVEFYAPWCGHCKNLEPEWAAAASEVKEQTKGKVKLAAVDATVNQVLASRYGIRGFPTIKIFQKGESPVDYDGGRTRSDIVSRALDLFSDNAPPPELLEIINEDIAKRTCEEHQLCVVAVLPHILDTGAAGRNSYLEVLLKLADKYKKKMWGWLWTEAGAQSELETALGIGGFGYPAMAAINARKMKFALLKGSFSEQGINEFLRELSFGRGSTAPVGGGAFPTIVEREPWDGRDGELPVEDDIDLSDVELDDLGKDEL", "test": "inhibitors of ERp5-mediated insulin aggregation, dose response, biochemical, turbidity, absorbance 650 nm, cherry-picked samples (AID 720566)"}, "[2]": {"test": "cytotoxicity toward NIH3T3 fibroblasts, dose response, counter-screen, cell-based, ATP luminescence, mouse fibroblasts (AID 2010);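 further: cells exposed to compound for about 90 hours before reading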", "format": "functional"}, "[3]": {"target": "Small ubiquitin-related modifier 2 (Homo sapiens, UniProt P61956)", "sequence (P61956 whole entry)": "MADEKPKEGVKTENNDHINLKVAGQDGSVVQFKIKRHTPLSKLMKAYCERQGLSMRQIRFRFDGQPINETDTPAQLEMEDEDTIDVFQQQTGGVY", "test": "inhibitors of SUMO2 protein-protein interaction, dose response, selectivity assay for SUMO1 interaction inhibitor project, biochemical, FRET, human SUMO2, uHTS hits (AID 624384)", "format": "functional", "settings": "read-out: IC50_Mean"}, "[4]": {"target": "T1, Alkaline phosphatase, tissue-nonspecific isozyme (Homo sapiens, UniProt P05186)", "T1 sequence (P05186 whole entry)": "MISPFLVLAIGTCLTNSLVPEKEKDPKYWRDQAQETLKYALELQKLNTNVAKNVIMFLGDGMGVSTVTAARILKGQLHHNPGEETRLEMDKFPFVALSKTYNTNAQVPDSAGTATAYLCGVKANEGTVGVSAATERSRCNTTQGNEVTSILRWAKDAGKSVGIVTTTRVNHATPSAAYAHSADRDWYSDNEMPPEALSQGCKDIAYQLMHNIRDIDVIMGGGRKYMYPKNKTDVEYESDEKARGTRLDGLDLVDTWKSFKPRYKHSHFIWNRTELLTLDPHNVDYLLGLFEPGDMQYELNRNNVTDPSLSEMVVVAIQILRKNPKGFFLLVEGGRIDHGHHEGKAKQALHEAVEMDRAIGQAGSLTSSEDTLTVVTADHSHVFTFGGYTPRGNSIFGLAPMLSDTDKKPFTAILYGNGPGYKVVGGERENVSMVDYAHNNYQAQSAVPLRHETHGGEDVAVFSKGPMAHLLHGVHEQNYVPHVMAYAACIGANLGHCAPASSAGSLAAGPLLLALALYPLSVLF", "test": "TNAP enzyme activators, dose response, selectivity assay for mouse IAP activator project, biochemical, TNAP isozyme, mouse IAP uHTS hits (AID 488880)", "format": "functional"}, "[5]": {"target": "ORF 73 (Human herpesvirus 8, UniProt O40947)", "sequence (O40947 whole entry)": "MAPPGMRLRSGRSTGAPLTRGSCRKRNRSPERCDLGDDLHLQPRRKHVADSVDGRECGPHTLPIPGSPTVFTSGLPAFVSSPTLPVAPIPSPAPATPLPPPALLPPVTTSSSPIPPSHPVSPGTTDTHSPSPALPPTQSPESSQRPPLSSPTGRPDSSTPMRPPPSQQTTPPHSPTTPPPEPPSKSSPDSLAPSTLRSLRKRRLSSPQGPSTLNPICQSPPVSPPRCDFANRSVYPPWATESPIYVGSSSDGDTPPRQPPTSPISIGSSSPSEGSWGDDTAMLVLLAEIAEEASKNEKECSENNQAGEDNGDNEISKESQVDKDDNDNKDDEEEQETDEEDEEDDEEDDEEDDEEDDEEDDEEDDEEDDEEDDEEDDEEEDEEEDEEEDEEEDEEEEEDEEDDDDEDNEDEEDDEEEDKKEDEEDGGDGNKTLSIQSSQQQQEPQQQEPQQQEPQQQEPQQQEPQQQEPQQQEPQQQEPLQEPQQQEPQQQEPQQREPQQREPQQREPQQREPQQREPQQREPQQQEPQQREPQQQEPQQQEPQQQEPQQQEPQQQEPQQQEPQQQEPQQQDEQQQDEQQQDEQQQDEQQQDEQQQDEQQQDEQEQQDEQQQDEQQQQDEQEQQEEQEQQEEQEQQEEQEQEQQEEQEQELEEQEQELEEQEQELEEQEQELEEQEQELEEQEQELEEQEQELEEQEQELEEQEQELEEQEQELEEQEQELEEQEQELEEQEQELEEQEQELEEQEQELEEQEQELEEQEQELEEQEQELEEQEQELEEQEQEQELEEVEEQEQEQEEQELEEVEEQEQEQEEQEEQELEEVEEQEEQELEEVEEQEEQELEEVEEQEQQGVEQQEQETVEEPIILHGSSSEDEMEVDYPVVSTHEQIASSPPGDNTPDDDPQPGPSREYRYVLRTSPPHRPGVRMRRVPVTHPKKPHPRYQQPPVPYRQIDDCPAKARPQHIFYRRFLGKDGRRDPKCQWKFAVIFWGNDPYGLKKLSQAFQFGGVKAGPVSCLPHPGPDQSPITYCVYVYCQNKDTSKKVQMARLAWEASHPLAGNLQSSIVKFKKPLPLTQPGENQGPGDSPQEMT", "test": "inhibitors of C-LANA binding to LBS DNA, dose response, biochemical, fluorescence polarization, cherry-picked samples (AID 504725);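 further: fluorescence polarization of a labeled DNA duplex reporting LANA DNA binding; potency is for inhibitors that block LANA binding to the DNA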", "design": "species or system Human gammaherpesvirus 8"}, "[6]": {"target": "T2, Dual specificity protein phosphatase 3 (Homo sapiens, UniProt P51452)", "T2 sequence (P51452 whole entry)": "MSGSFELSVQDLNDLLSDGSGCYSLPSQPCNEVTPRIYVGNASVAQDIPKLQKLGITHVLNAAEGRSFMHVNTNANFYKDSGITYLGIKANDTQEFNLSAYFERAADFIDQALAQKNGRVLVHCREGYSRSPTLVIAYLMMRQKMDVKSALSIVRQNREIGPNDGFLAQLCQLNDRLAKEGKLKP", "test": "VHR1 phosphatase inhibitors, biochemical (AID 1878)"}, "[7]": {"target": "T2, Dual specificity protein phosphatase 3", "test": "SAR VHR1 Fluorescent Assay for In Vitro dose response studies Set 2. [Related pubchem assays (depositor defined):AID1654, AID1661, AID1878]", "format": "functional"}, "[8]": {"target": "T3, Streptokinase A (Streptococcus pyogenes serotype M1, UniProt P10520)", "T3 sequence (P10520 whole entry)": "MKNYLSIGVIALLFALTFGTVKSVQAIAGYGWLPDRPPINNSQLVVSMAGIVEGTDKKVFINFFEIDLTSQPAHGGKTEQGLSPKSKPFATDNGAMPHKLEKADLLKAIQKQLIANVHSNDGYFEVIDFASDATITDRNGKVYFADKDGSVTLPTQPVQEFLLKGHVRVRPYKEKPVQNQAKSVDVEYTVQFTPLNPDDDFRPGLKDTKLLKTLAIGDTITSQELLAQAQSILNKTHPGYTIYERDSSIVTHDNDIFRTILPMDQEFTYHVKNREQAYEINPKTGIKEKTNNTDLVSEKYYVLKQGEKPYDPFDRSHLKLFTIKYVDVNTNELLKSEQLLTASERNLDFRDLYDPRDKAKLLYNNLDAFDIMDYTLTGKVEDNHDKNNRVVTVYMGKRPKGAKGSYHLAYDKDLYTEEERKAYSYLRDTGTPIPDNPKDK", "test": "S. pyogenes streptokinase expression inhibitors, potency, dose response, plasminogen activation absorbance, OD405 (AID 1914);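 further: secreted streptokinase activity via plasminogen activation per viability signal from cell pellet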", "format": "functional, Streptococcus pyogenes M1 GAS"}, "[9]": {"system": "Streptococcus sp. 'group A'", "test": "growth inhibition of control SK(-) GAS strain, dose response, counter-screen for streptokinase expression inhibitor project, luminescence, kanamycin, BacTiterGlo, confirmation (AID 1900)", "format": "functional, organism-based"}, "[10]": {"target": "Photoreceptor-specific nuclear receptor (Homo sapiens, UniProt Q9Y5X4)", "sequence (Q9Y5X4 whole entry)": "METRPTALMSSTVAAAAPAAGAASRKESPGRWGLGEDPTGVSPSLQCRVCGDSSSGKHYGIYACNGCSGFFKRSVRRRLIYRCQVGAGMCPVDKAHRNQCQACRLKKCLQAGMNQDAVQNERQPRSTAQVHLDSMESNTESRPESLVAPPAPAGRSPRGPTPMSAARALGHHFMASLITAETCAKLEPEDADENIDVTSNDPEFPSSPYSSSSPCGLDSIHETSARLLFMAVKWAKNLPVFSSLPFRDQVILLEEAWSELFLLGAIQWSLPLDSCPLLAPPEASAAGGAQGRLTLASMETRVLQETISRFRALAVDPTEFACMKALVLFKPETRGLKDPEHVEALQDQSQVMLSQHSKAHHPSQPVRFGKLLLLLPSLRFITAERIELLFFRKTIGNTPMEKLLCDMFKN", "format": "functional, cell-based"}, "[11]": {"test": "Counterscreen for AddAB inhibitors: absorbance-based bacterial cell-based high throughput dose response assay for inhibitors of bacterial viability. [Related pubchem assays (depositor defined):AID435030, AID449728, AID449731, AID488942, AID488955, AID488956]", "format": "functional"}},
  "note": "Values joined by “and” are separate entries in the source; they are usually repeats but may differ in a detail not shown here. Identical values can stand only once. Active and inactive are the calls of the source.",
  "data": [
    {"molecule": "COC(=O)c1cc(C)nc2c1C(=O)C(=O)C=C2N1CCOCC1", "values": [
      {"measurement": "AC50", "setting": "[1]", "result": "45.1 µM (active)"},
      {"measurement": "EC50", "setting": "[2]", "result": "> 16 µM (not active)"}
    ]},
    {"molecule": "NS(=O)(=O)c1cc(C(=O)NC2CCSc3ccccc32)ccc1Cl", "note": "(stereo unspecified)", "values": [
      {"measurement": "IC50", "setting": "[3]", "result": "1.75 µM (active)"},
      {"measurement": "EC50", "setting": "[4]", "result": "68.1 µM (active)"},
      {"measurement": "AC50", "setting": "[5]", "result": "10.1 µM (active)"},
      {"measurement": "IC50", "setting": "[6]", "result": "< 1.23 µM (inactive)"},
      {"measurement": "IC50", "setting": "[7]", "result": "> 100 µM (inactive) and 82.8 nM (active)"}
    ]},
    {"molecule": "O=C1c2ccccc2C(=O)c2[nH]c(O)nc21", "values": [
      {"measurement": "EC50", "setting": "[8]", "result": "130 µM (active)"},
      {"measurement": "EC50", "setting": "[9]", "result": "4.23 µM (active)"},
      {"measurement": "IC50", "setting": "[10]", "result": "4.48 µM (active)"},
      {"measurement": "IC50", "setting": "[11]", "result": "> 119 µM (inactive)"}
    ]}
  ]
}
